Measured values published in patent US20230295234A1, “ANTIMICROBIAL PEPTIDOMIMETICS” (SPEXIS AG, priority 2020, published 2023).
Like-named read-outs stand apart in the source and are kept apart here. Bridge positions count the residues as written; N and C are the ends. Square brackets hold non-standard residues; d marks the D form. Peptide text beside a SMILES is read from it. Gly(N-2-aminoethyl) = NCCNCC(=O)O; Hyp = O=C(O)[C@@H]1C[C@@H](O)CN1; Pen = CC(C)(S)[C@H](N)C(=O)O; dDab = NCC[C@@H](N)C(=O)O; Nle = CCCC[C@H](N)C(=O)O; Dab = NCC[C@H](N)C(=O)O

Key:
[1] = system: Escherichia coli MCR-1 Af 45
Method in brief: (§1)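 Two-fold serial dilutions of peptide, in water with polysorbate 80 (0.002% final), met bacteria adjusted to 0.5 McFarland then diluted to about 5×10^5 CFU/mL. Medium was cation-adjusted Mueller-Hinton II broth; peptide stocks were 1 mg/mL in sterile water.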

[2] = system: Klebsiella pneumoniae SSI3010; conditions: SSI3010
Method in brief: as §1

[3] = system: Escherichia coli ATCC 25922; conditions: ATCC 25922
Method in brief: as §1

[4] = system: human red blood cells (hRBC); assay: Hemolysis of human red blood cells; type: cell-based; conditions: red cells of human, 1 h
Method in brief: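 PBS-washed human red blood cells (20% v/v) were incubated with peptide at 200 μg/mL for 1 h at 37 °C with shaking. Supernatant OD was read at 540 nm after 8-fold dilution. Hemolysis is expressed as percent of the water control.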

Row | SMILES | Escherichia coli MCR-1 Af 45 MIC ([1]; Mueller-Hinton broth II, 18-20 hours at 35° C.) [µg/mL] | Klebsiella pneumoniae SSI3010 MIC [2] [µg/mL] | Escherichia coli ATCC 25922 MIC [3] [µg/mL] | Hemolysis at 0.2 g/L [4] [%] | Escherichia coli MCR-1 Af 45 MIC ([1]; MCR-1 Af 45) [µg/mL]
1 | CC[C@H](C)[C@H](NC(=O)[C@@H](NC(=O)[C@@H]1CCCN1C(=O)[C@@H](N=C(N(C)C)N(C)C)C(C)C)[C@@H](C)CC)C(=O)N[C@@H](Cc1ccc(O)cc1)C(=O)N[C@H]1CSSC[C@@H](C(=O)N[C@@H](CCN)C(=O)N[C@@H](CCCNC(=N)N)C(=O)N[C@@H](Cc2ccc(O)cc2)C(=O)O)NC(=O)[C@H](CCCCN)NC(=O)[C@@H](CCN)NC(=O)[C@H]([C@@H](C)O)NC(=O)[C@H](CCN)NC(=O)[C@H](CCCNC(=N)N)NC(=O)[C@H](CC(N)=O)NC1=O [Example 202] (HELM PEPTIDE1{[CC(C)[C@H](N=C(N(C)C)N(C)C)C(=O)[*:2]].P.I.I.Y.C.N.R.[Dab].T.[NCC[C@@H](N[*:1])C(=O)[*:2]].K.C.[Dab].R.Y}$PEPTIDE1,PEPTIDE1,6:R3-13:R3$$$V2.0) | 0.0625 | 0.25 | 0.0625 | 0 | –
2 | CCCC[C@H](NC(=O)[C@H](CCCNC(=N)N)NC(=O)[C@H](CCN)NC(=O)[C@@H]1CSSC(C)(C)[C@H](NC(=O)[C@H](Cc2ccc(O)cc2)NC(=O)[C@@H](NC(=O)[C@@H](NC(=O)[C@@H]2C[C@@H](N)CN2C(=O)[C@@H](NC(=O)[C@@H]2CCCN2)C(C)C)[C@@H](C)CC)[C@@H](C)CC)C(=O)N[C@@H](CC(N)=O)C(=O)N[C@@H](CCCNC(=N)N)C(=O)N[C@@H](CCN)C(=O)N[C@@H]([C@@H](C)O)C(=O)N[C@H](CCN)C(=O)N[C@@H](CCCCN)C(=O)N1)C(=O)O [Example 5, Pro-Val-Pro((4R)NH2)-Ile-Ile-Tyr-Pen-Asn-Arg-Dab-Thr-^DDab-Lys-Cys-Dab-Arg-Nle] (HELM PEPTIDE1{P.V.[N[C@@H]1C[C@@H](C(=O)[*:2])N([*:1])C1].I.I.Y.[Pen].N.R.[Dab].T.[NCC[C@@H](N[*:1])C(=O)[*:2]].K.C.[Dab].R.[Nle]}$PEPTIDE1,PEPTIDE1,7:R3-14:R3$$$V2.0) | – | 0.25 | 0.0625 | 0 | 0.0625
3 | CC[C@H](C)[C@H](NC(=O)[C@@H]1C[C@@H](O)CN1C(=O)[C@@H](NC(=O)CN(CCN)C(=O)CNCCN)C(C)C)C(=O)N[C@H](C(=O)N[C@@H](Cc1ccc(O)cc1)C(=O)N[C@@H]1C(=O)N[C@@H](CC(N)=O)C(=O)N[C@@H](CCCNC(=N)N)C(=O)N[C@@H](CCN)C(=O)N[C@@H]([C@@H](C)O)C(=O)N[C@H](CCN)C(=O)N[C@@H](CCCCN)C(=O)N[C@H](C(=O)N[C@@H](CCN)C(=O)N[C@@H](CCCNC(=N)N)C(=O)N[C@@H](Cc2ccc(O)cc2)C(=O)O)CSSC1(C)C)[C@@H](C)O [Example 54, Ndab-Ndab-Val-Hyp-Ile-Thr-Tyr-Pen-Asn-Arg-Dab-Thr-^DDab-Lys-Cys-Dab-Arg-Tyr] (H-[Gly(N-2-aminoethyl)][Gly(N-2-aminoethyl)]V[Hyp]ITY[Pen]NR[Dab]T[dDab]KC[Dab]RY-OH; disulfide 8-15) | – | 0.25 | 0.125 | 0 | 0.125
4 | CC[C@H](C)[C@H](NC(=O)[C@@H]1C[C@@H](O)CN1C(=O)[C@@H](NC(=O)[C@@H]1C[C@@H](N)CN1C(=N)N)C(C)C)C(=O)N[C@H](C(=O)N[C@@H](Cc1ccc(O)cc1)C(=O)N[C@@H]1C(=O)N[C@@H](CC(N)=O)C(=O)N[C@@H](CCCNC(=N)N)C(=O)N[C@@H](CCN)C(=O)N[C@@H]([C@@H](C)O)C(=O)N[C@H](CCN)C(=O)N[C@@H](CCCCN)C(=O)N[C@H](C(=O)N[C@@H](CCN)C(=O)N[C@@H](CCCNC(=N)N)C(=O)N[C@@H](Cc2ccc(O)cc2)C(=O)O)CSSC1(C)C)[C@@H](C)O [Example 38, Gua-Pro((4R)NH2)-Val-Hyp-Ile-Thr-Tyr-Pen-Asn-Arg-Dab-Thr-^DDab-Lys-Cys-Dab-Arg-Tyr] (HELM PEPTIDE1{[N=C(N)N1C[C@H](N)C[C@H]1C(=O)[*:2]].V.[Hyp].I.T.Y.[Pen].N.R.[Dab].T.[NCC[C@@H](N[*:1])C(=O)[*:2]].K.C.[Dab].R.Y}$PEPTIDE1,PEPTIDE1,7:R3-14:R3$$$V2.0) | – | 0.125 | 0.25 | 0 | 0.0625
5 | CC[C@H](C)[C@H](NC(=O)[C@@H](NC(=O)[C@@H]1CCCN1C(=O)[C@@H](NC(=O)[C@@H]1CCCN1C(=O)[C@H](CCCCN)NC(=O)[C@@H](N)CCCCN)C(C)C)[C@@H](C)CC)C(=O)N[C@@H](Cc1ccc(O)cc1)C(=O)N[C@H]1CSSC[C@@H](C(=O)N[C@@H](CCN)C(=O)N(CCCN)CC(=O)N[C@@H](Cc2ccc(O)cc2)C(=O)O)NC(=O)[C@H](CCCCN)NC(=O)[C@@H](CCN)NC(=O)[C@H]([C@@H](C)O)NC(=O)[C@H](CCN)NC(=O)[C@H](CCCNC(=N)N)NC(=O)[C@H](CC(N)=O)NC1=O [Example 108] (HELM PEPTIDE1{K.K.P.V.P.I.I.Y.C.N.R.[Dab].T.[NCC[C@@H](N[*:1])C(=O)[*:2]].K.C.[Dab].[NCCCN(CC(=O)[*:2])[*:1]].Y}$PEPTIDE1,PEPTIDE1,9:R3-16:R3$$$V2.0) | – | 0.0625 | 0.125 | 0 | ≤0.03125
6 | CC[C@H](C)[C@H](NC(=O)[C@@H]1C[C@@H](N)CN1C(=O)[C@@H](NC(=O)[C@@H]1C[C@@H](O)CN1C(=O)[C@@H](N)CCCCN)C(C)C)C(=O)N[C@H](C(=O)N[C@@H](Cc1ccc(O)cc1)C(=O)N[C@@H]1C(=O)N[C@@H](CC(N)=O)C(=O)N[C@@H](CCCNC(=N)N)C(=O)N[C@@H](CCN)C(=O)N[C@@H]([C@@H](C)O)C(=O)N[C@H](CCN)C(=O)N[C@@H](CCCCN)C(=O)N[C@H](C(=O)N[C@@H](CCN)C(=O)N[C@@H](CCCNC(=N)N)C(=O)N[C@@H](Cc2ccc(O)cc2)C(=O)O)CSSC1(C)C)[C@@H](C)O [Example 43, Lys-Hyp-Val-Pro((4R)NH2)-Ile-Thr-Tyr-Pen-Asn-Arg-Dab-Thr-^DDab-Lys-Cys-Dab-Arg-Tyr] (HELM PEPTIDE1{K.[Hyp].V.[N[C@@H]1C[C@@H](C(=O)[*:2])N([*:1])C1].I.T.Y.[Pen].N.R.[Dab].T.[NCC[C@@H](N[*:1])C(=O)[*:2]].K.C.[Dab].R.Y}$PEPTIDE1,PEPTIDE1,8:R3-15:R3$$$V2.0) | – | 0.125 | 0.125 | 0 | 0.125
7 | CC[C@H](C)[C@H](NC(=O)[C@@H](NC(=O)[C@@H]1CCCN1C(=O)[C@@H](NC(=O)[C@@H]1CCCN1C(=O)CNC(=O)[C@@H](N)CCCCN)C(C)C)[C@@H](C)CC)C(=O)N[C@@H](Cc1ccc(O)cc1)C(=O)N[C@@H]1C(=O)N[C@@H](CC(N)=O)C(=O)N[C@@H](CCCNC(=N)N)C(=O)N[C@@H](CCN)C(=O)N[C@@H]([C@@H](C)O)C(=O)N[C@H](CCN)C(=O)N[C@@H](CCCCN)C(=O)N[C@H](C(=O)N[C@@H](CCN)C(=O)N[C@@H](CCCNC(=N)N)C(=O)N[C@@H](Cc2ccc(O)cc2)C(=O)O)CSSC1(C)C [Example 91] (HELM PEPTIDE1{K.G.P.V.P.I.I.Y.[Pen].N.R.[Dab].T.[NCC[C@@H](N[*:1])C(=O)[*:2]].K.C.[Dab].R.Y}$PEPTIDE1,PEPTIDE1,9:R3-16:R3$$$V2.0) | – | 0.125 | 0.125 | 0 | ≤0.03125
8 | CCCC[C@H](NC(=O)[C@H](CCCNC(=N)N)NC(=O)[C@H](CCC(N)=O)NC(=O)[C@@H]1CSSC[C@H](NC(=O)[C@H](Cc2ccc(O)cc2)NC(=O)[C@@H](NC(=O)[C@@H](NC(=O)[C@@H]2CCCN2C(=O)[C@@H](NC(=O)[C@@H]2CCCN2C(=O)[C@H](CCCCN)NC(=O)[C@@H](N)CCCCN)C(C)C)[C@@H](C)CC)[C@@H](C)CC)C(=O)N[C@@H](CC(N)=O)C(=O)N[C@@H](CCCNC(=N)N)C(=O)N[C@@H](CCN)C(=O)N[C@@H]([C@@H](C)O)C(=O)N[C@H](CCN)C(=O)N[C@@H](CCCCN)C(=O)N1)C(=O)O [Example 67] (HELM PEPTIDE1{K.K.P.V.P.I.I.Y.C.N.R.[Dab].T.[NCC[C@@H](N[*:1])C(=O)[*:2]].K.C.Q.R.[Nle]}$PEPTIDE1,PEPTIDE1,9:R3-16:R3$$$V2.0) | – | 0.25 | 0.125 | 0 | 0.25
9 | CCCC[C@H](NC(=O)[C@H](CCCNC(=N)N)NC(=O)[C@H](CCN)NC(=O)[C@@H]1CSSC(C)(C)[C@H](NC(=O)[C@H](Cc2ccc(O)cc2)NC(=O)[C@@H](NC(=O)[C@@H](NC(=O)CN(CCN)C(=O)[C@@H](NC(=O)CNCCN)C(C)C)[C@@H](C)CC)[C@@H](C)CC)C(=O)N[C@@H](CC(N)=O)C(=O)N[C@@H](CCCNC(=N)N)C(=O)N[C@@H](CCN)C(=O)N[C@@H]([C@@H](C)O)C(=O)N[C@H](CCN)C(=O)N[C@@H](CCCCN)C(=O)N1)C(=O)O [Example 13, Ndab-Val-Ndab-Ile-Ile-Tyr-Pen-Asn-Arg-Dab-Thr-^DDab-Lys-Cys-Dab-Arg-Nle] (H-[Gly(N-2-aminoethyl)]V[Gly(N-2-aminoethyl)]IIY[Pen]NR[Dab]T[dDab]KC[Dab]R[Nle]-OH; disulfide 7-14) | – | 0.25 | 0.125 | 0 | 0.125
